{
  "source": "patent US20200299671A1",
  "about": "“IMMOBILIZED MULTI-ENZYMATIC HALOGENATION SYSTEM” (priority 2019, published 2020)",
  "key": {"[1]": {"target": "T1, PltM (Pseudomonas protegens, UniProt Q4KCZ3)", "T1 sequence (Q4KCZ3 entry or part of it)": "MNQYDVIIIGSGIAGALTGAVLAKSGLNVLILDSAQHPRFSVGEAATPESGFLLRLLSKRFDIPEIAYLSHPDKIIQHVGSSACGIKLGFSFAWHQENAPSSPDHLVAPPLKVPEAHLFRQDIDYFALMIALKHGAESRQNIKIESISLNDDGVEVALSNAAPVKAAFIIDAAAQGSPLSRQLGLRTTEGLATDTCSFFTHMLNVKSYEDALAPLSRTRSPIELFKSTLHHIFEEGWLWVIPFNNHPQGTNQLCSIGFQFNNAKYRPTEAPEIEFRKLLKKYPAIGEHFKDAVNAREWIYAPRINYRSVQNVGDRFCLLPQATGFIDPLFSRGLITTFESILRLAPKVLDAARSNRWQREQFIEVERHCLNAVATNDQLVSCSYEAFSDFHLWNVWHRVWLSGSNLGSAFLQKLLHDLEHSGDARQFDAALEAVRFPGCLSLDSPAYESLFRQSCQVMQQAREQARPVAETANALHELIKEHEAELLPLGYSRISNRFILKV", "test": "Halogenating competition assays in 1:1 or 10:1 mixtures of two halide salts (Assay 2a-2e), LC-MS", "assay_type": "biochemical", "procedure": "To establish if hetero-dihalogenation by PltM could be observed, halogenating competition assays in 1:1 or 10:1 mixtures of two different halide salts were performed (Assay 2). The reactions contained the same components as above except single halide salts were replaced with either a 1:1/NaCl:NaBr (Assay 2a), 1:1/NaCl:NaI (Assay 2b), or 1:1/NaBr:NaI (Assay 2c) mixtures (100 mM of each halide). The reactions were initiated by adding NADPH under N2. A 1:1/NaCl:NaBr reaction was also performed with 200 mM of each halide to test occurrence of homo-di- or hetero-chlorination/bromination, and 10:1/NaCl:NaI (Assay 2d) and 10:1/NaBr:NaI (Assay 2e) mixtures with 200 mM of NaCl or NaBr and 20 mM of NaI were tested to check whether chlorination or bromination could occur in the presence of iodide and whether iodination can occur with chlorination or bromination to yield a C1,I-substrate or Br,I-substrate. The reactions were incubated and processed as described above in Assay 1.\nThe halogenation reaction products were analyzed by HPLC or LC-MS by injecting 10 μL of each sample. The compounds were separated by Reversed-phase HPLC at the flow rate of 0.2 mL/min by using the following program: eluent A=H2O; eluent B=MeCN; gradient=2% B for 5 min, increase to 100% B over a 30 min period, stay at 100% B for 9 min, decrease to 2% B over a 1 min period, and re-equilibrate the column at 2% B for 30 min.\nFor HPLC analysis, the molecules were observed by absorbance at λ=275 nm as described above. As necessary, the following mass spectrometer was operated in negative and positive modes with the following parameters: For negative mode, mass range, 80-600 m/z in profile mode; temperature, 550° C. and ion spray voltage floating, −4500 V, and for positive mode, mass range, 80-600 m/z in profile mode; temperature, 550° C. and ion spray voltage floating, 4500 V. The presence of each compound was analyzed by extracted ion chromatograph (XIC) with the expected mass ±0.05 Da for Assay 1 and Assay 2 and ±0.005 Da for Assay 3 (FIGS. 2A-C, 8-13, and 17-37; Tables 3-4 and 7)."}, "[2]": {"target": "T1, PltM", "test": "X-ray crystallography of PltM crystals soaked with FAD and substrates", "conditions": "crystals soaked with 0.5 mM FAD and substrate", "procedure": "PltM crystals were obtained by the hanging drop method with drops containing 0.5 μL of PltM (40 mg/mL) and 0.5 μL of the reservoir solution (0.1 M Tris pH 8, 0.2 M NaCl, 0.1 M CaCl2) and 12-17% PEG 8000). The drops were equilibrated against 0.5 mL of reservoir solution at 21° C. Long rod-shaped crystals appeared after 1-3 days. The crystals were cryoprotected by a gradual transfer to the solution with the same composition as the reservoir solution, additionally containing 20% glycerol. The crystals were then frozen by a rapid immersion into liquid nitrogen.\nHowever, PltM contains eight Cys residues, which, if accessible, would react with Hg salts. […] The structure was determined by the single anomalous dispersion (SAD) method from the EMP derivative data set (using the wavelength of 1.0 Å), as follows. […] This Hg substructure was used as an input in Autosolve in PHENIX suite to obtain initial phases, which were bootstrapped by difference Fourier analysis to yield the total of 33 Hg atoms and a readily interpretable electron density map, with the figure of merit of 0.71 after density modification. […]\nPltM crystals were soaked in the reservoir solution used to obtained native PltM crystals, with additional 0.5 mM of FAD. […] FAD was readily discernable in the omit Fo-Fc map. […]"}},
  "data": [
    {"smiles": "Oc1cc(O)cc(O)c1", "note": "[Compound 1, phloroglucinol]", "values": [
      {"measurement": "products of competitive halogenation", "setting": "[1]; 10-fold molar excess of NaBr over NaI", "value": "mono-brominated, mono-iodinated, and diiodinated 1 were identified"},
      {"measurement": "products of competitive halogenation", "setting": "[1]; 10-fold molar excess of NaCl over NaI", "value": "all possible mono- and dihalogenated products were identified, including chloro-iodinated 1"},
      {"measurement": "products of competitive halogenation", "setting": "[1]; two halides (Cl/Br, Cl/I or Br/I) at equimolar ratios", "value": "mono-halogenated products of either halogen and diiodinated 1 where NaI was used"},
      {"measurement": "omit Fo-Fc electron density of substrate in soaked PltM crystals", "setting": "[2]", "value": "yielded omit Fo-Fc electron density"}
    ]}
  ]
}
